Like-named read-outs stand apart in the source and are kept apart here.

As a reminder, the EC50 is the concentration needed to bring the measured effect to its halfway point. By IC50 is commonly meant the point on the concentration scale where inhibition reaches its midpoint.

Experiment [1] concerns the target T1, Hsp90α (Homo sapiens, UniProt P07900).
T1 construct: purchased Stressgen Bioreagents SPP-776
Kind of experiment: Fluorescence polarization binding isotherms of tracers with Hsp90α. The note with it: fitted to a 1:1 binding model; read-out: dissociation constant (KD) tracer / Hsp90α. As to the method: (§1) Once compounds of examples 37 and 41 were synthesized as reported above, they were dissolved at 238 μM and 1 mM in DMSO respectively (Sigma-Aldrich, cat. No. 154938). Hsp90α was purchased from Stressgen Bioreagents (cat. No. SPP-776; Victoria, Canada). The assay buffer contained 100 mM Tris·HCl, pH 7.4, 20 mM KCl, 6 mM MgCl2. Before each use 5 μg/mL bovine serum albumin (BSA, Pierce, Rockford (Ill.), cat No. 23209), 0.25 mM TCEP (Sigma, cat No. 64706) and 0.01% NP40 (Nonidet P40 Substitute, Fluka, cat No. 74385) were freshly added (cf. Howes et al., “A fluorescence polarization assay for inhibitors of Hsp90”, Analytical Biochemistry, 2006, vol. 350, p. 202-213; Kim et al., “Development of a fluorescence polarization assay for the molecular chaperone Hsp90”, J. Biomol. Screen., 2004, vol. 9 (5)).
Fluorescence polarization measurements were performed on an Infinite F200 (Tecan, Austria). […] A beam splitter filter directs the polarized excitation light into the well, and emitted fluorescence transmits back through the same beam-splitter filter, through a polarizer filter, and then through a 535 nm (25-nm bandwidth) emission filter for detection (Kim et al., supra). The read time per well was 20 μs, and the number of reads per well was 25. […]
Background: Fluorescence polarisation rises when a labelled molecule tumbles more slowly, as on binding a larger partner.

In experiment [2] the test system is Hsp90 client proteins (c-Raf-1, Cdk4, Her2) and co-chaperone Hsp70. To be noted: literature (Banerji U. et al.); cited from earlier work.
The test system of the next experiment is HCT-116. Put plainly: Cell growth inhibition by AlamarBlue method, HCT-116. Format: cell-based. To be noted: Homo sapiens; HCT-116, 72 hours; read-out: Cell growth inhibition values (EC50) obtained with AlamarBlue method. Here is the method: (§2) The human colon cancer cell line HCT-116 and the human breast cell lines MCF-7 and SKBr3 were from the American Type Culture Collection (ATCC; CCL-247, HTB-22 and HTB-30, respectively).
(§3) The HCT-116 and SKBr3 cell lines were maintained in DMEM GlutaMAX (Invitrogen) supplemented with 10% fetal calf serum and the MCF-7 cell line was maintained in RPMI1640 GlutaMAX (Invitrogen) containing 1 mM sodium pyruvate and 10% fetal calf serum. Cells were grown in a humidified incubator at 37° C. in 5% CO2
(§4) Cells were plated in 96-well plates (Costar, 3596) at a density of 6000 cells/well in 50 μL medium 24 h before addition of the compounds. Compounds were then added in 8 concentrations, each in triplicate (dilution series of 1 to 3). To do so, a compound-dilution plate at 200× the screening concentrations was prepared in DMSO 100% (Sigma, 154938). Then, 1.7 μL of the 200× diluted compounds were transferred to a new plate and 170 μL of media were added and mixed with the pipette (plate at 2×). Columns 11 and 12 of this plate (controls) were filled with 1% DMSO in cell media (i.e. 1.7 μL DMSO and 170 μL cell media). Finally, 50 μL of this intermediate plate at 2× were transferred to the plate containing the seeded cells and slowly shaken manually. Cells were grown as described above. AlamarBlue viability assay (Biosource, Invitrogen, DAL1100) was performed 72 hours later following manufacturer's protocol. In brief, AlamarBlue diluted in media was added to cells to have a 5% solution (a 2× solution was prepared in media and 100 μL of this solution were transferred to each well, i.e. final volume of 200 μL). Cells were incubated at 37° C., 3 hours and at room temperature for an additional 30 min. Cells with no compound and, cells with no compound and lysed with triton X-100 (30 μL/well added 10 min before treatment with AlamarBlue) were used as controls (6 replicates of each). Fluorescence was monitored at 530 nm excitation and 590 nm emission wavelengths. Results were quantified using ELx800 Universal Microplate Reader (Bio-Tek Instruments, Inc.). EC50 were calculated as the dose of compound required to inhibit cell growth by 50%.
A general note: Resazurin is reduced to fluorescent resorufin, in cell work by metabolically active cells.

A further experiment has as its system MCF-7. Kind of experiment: Cell growth inhibition by AlamarBlue method, MCF-7. Format: cell-based, human. The note with it: MCF-7, 72 hours, read-out: Cell growth inhibition values (EC50) obtained with AlamarBlue method. As to the method:
as §2, §3, §4

For experiment [3], the target named is T1, Hsp90α. Kind of experiment: Human Hsp90α fluorescence polarization competition assay with Example 37 tracer. To be noted: displacement of 50 nM example 37 tracer, 125 nM Hsp90α, 1 h 30 min, 20° C.; read-out: Relative binding affinity values (IC50) obtained from FP measurements.
Excerpt: The aim of this study was to determine the binding ability of compounds of the invention to the N-terminal ATP binding site of Hsp90. For that purpose competition assays with fluorescently labeled Hsp90 binders were used (compounds of examples 37 and 41).
Compounds of examples 37 and 41 are structurally based on 8-(6-Iodo-benzo[1,3]dioxol-5-ylsulfanyl)-9-(3-isopropylamino-propyl)-9H-purin-6-ylamine, a known binder of the N-terminal ATP binding site of Hsp90 which has the ability of inhibiting the Hsp90 function (cf. Chiosis G. et al. “Identification of Potent Water Soluble Purine-Scaffold Inhibitors of the Heat Shock Protein 90”, J. Med. Chem., 2006, vol. 49, no. 1, p. 381). Compounds 37 and 41 keep the essential structural features of the known binder (which means that said compounds are able to bind to the ATP binding site) and incorporate a fluorescent probe which allows the detection of the binding by fluorescence polarization.
When the binders of examples 37 and 41 are used in the competition assay, in a first step said binders are allowed to interact with the N-terminal ATP binding site of Hsp90. Then the compounds of the invention are added and it is determined if they are able to bind to the N-terminal ATP binding site (which will imply that the binders of examples 37 and 41 have been replaced from the N-terminal ATP binding site). If after performing the assay, the binding between the tested compound of the invention and the Hsp90 is observed, this will be indicative that the compound of the invention has been bound to the ATP binding site of Hsp90 and, therefore, can inhibit the Hsp90.
as §1
Fluorescence polarization measurements were performed on an Infinite F200 (Tecan, Austria). Measurements were taken in black 96-well microplates (Corning Costar No. 3650) in which both the excitation and the emission occurred from the top of the wells. In the Infinite F200, a xenon arc lamp provides excitation light that passes through a 485 nm (20-nm bandwidth) excitation filter and then a polarizer filter. A beam splitter filter directs the polarized excitation light into the well, and emitted fluorescence transmits back through the same beam-splitter filter, through a polarizer filter, and then through a 535 nm (25-nm bandwidth) emission filter for detection (Kim et al., supra). The read time per well was 20 μs, and the number of reads per well was 25.
Compounds were assayed over a three-fold dilution series in a 96-well plate format to determine IC50 values. The serial dilution was performed in a separate 96-well plate (Thermowell 96 well PCR plate, Non-Treated Polypropylene, Corning Costar No. 6551) at 50 times final assay concentration in DMSO. (Howes et al, supra). 2 μl of compound was transferred to a black 96-well plate (Corning Costar No. 3650) and 98 μL of reaction solution (100 mM Tris·HCl, pH 7.4, 20 mM KCl, 6 mM MgCl2, 5 μg/mL bovine serum albumin (BSA), 0.25 mM TCEP, 0.01% NP40, 50 nM the compound of example 37, 125 nM Hsp90α) was added per well. The plate was allowed to equilibrate for 1 h 30 min on a slow moving shaker at 20° C. in the dark. […]

The next experiment relates to SKBr3. Kind of experiment: Cell growth inhibition by AlamarBlue method, SKBr3. To be noted: Homo sapiens, SK-BR-3; SKBr3, 72 hours; read-out: Cell growth inhibition values (EC50) obtained with AlamarBlue method. Format: cell-based. Here is the method: as §2, §3, §4

Turning to `Nc1ncnc2c1nc(Sc1cc3c(cc1I)OCO3)n2CCCCNC(=O)CCCCCNc1ccc([N+](=O)[O-])c2nonc12` [Example 41, 6-(7-nitro-benzo[1,2,5]oxadiazol-4-ylamino)-hexanoic acid {-4-[6-amino-8-(6-iodo-benzol[1,3]dioxol-5-ylsulfanyl)-purin-9-yl]-butyl}-amide], at Hsp90α [1], the Kd was 0.021 µM.
In the case of `C=CCNC1=C2C[C@@H](C)C[C@H](OC)[C@H](O)[C@@H](C)/C=C(\C)[C@H](OC(N)=O)[C@@H](OC)/C=C\C=C(/C)C(=O)NC(=CC1=O)C2=O` [Example 17AAG, 17-Allylamino, 17-Demethoxygeldanamycin], the “effect of Hsp90 inhibitor on client proteins and Hsp70 as described in the literature” value in experiment [2] was “promotes degradation of its client proteins and overexpression of the co-chaperone Hsp70”.
As to `CCCCn1c(Sc2nc3cccc(Cl)c3s2)nc(C(N)=O)c1N` [Example 48, 5-amino-1-butyl-2-(7-chloro-benzothiazol-2-ylsulfanyl)-1H-imidazole-4-carboxamide], the half-maximal effective concentration (EC50) came to 33 µM in the experiment with HCT-116 and 43 µM with MCF-7 (Homo sapiens, MCF7). In addition, at Hsp90α [3], the IC50 was 2.76 µM.
Turning to `NC(=O)c1nc(Sc2cc3c(cc2I)OCO3)n(CCCN2CCOCC2)c1N` [Example 87, 5-amino-2-[(6-iodo-1,3-benzodioxol-5-yl)thio]-1-(3-morpholin-4-ylpropyl)-1H-imidazole-4-carboxamide], the figures for the EC50 in the experiment with HCT-116 and in the experiment on SKBr3 were 1 µM and 4.6 µM, respectively. In addition, the IC50 on Hsp90α [3] is 0.9 µM.
On to `CC(C)NCCCn1c(Sc2cc3c(cc2I)OCO3)nc(C(N)=O)c1N` [Example 33, 5-amino-2-(6-iodo-benzo[1,3]dioxol-5-ylsulfanyl)-1-(3-isopropylamino-propyl)-1H-imidazole-4-carboxamide], for which the EC50 amounted to 3 µM in the experiment on HCT-116 and 3 µM with MCF-7 (Homo sapiens, MCF7). Further, at Hsp90α [3], the concentration for half-maximal inhibition (IC50) was 0.5 µM.
As for `C=Cc1cc2c(cc1Sc1nc(C(N)=O)c(N)n1C)OCO2` [Example 77, 5-amino-1-methyl-2-[(6-vinyl-1,3-benzodioxol-5-yl)thio]-1H-imidazole-4-carboxamide], the EC50 in the experiment with HCT-116 and in the experiment with SKBr3 was 39.2 µM in each case. The IC50 on Hsp90α [3] was determined as 4.5 µM.
Regarding `CC(C)N(CCCn1c(Cc2cc3c(cc2I)OCO3)nc(C(N)=O)c1N)C(=O)OC(C)(C)C` [Example 44, {3-[5-amino-4-carbamoyl-2-(6-iodo-benzol[1,3]dioxol-5-ylmethyl)-imidazol-1-yl]-propyl}-isopropyl-carbamic acid tert-butyl ester], in the experiment on MCF-7, the EC50 was found to be 18.8 µM. Further, the IC50 at Hsp90α [3] was 3.2 µM.
Regarding `Cc1cc(C)n2c1C=C1C=CC(CCC(=O)NCCNC(=O)CCCCCn3c(Sc4cc5c(cc4I)OCO5)nc4c(N)ncnc43)=[N+]1[B-]2(F)F` [Example 37, 6-[6-amino-8-(6-iodo-benzol[1,3]dioxol-5-ylsulfanyl)-purin-9-yl]-hexanoic acid 4,4-difluoro-5,7-dimethyl-4-bora-3a,4a-diaza-s-indacene-3-propionylethylenediamide], the Kd at Hsp90α [1] was 0.06 µM.
`Cn1c(Sc2cc3c(cc2Br)OCC3)nc(C(N)=O)c1N` [Example 97, 5-amino-2-[(6-bromo-2,3-dihydro-1-benzofuran-5-yl)thio]-1-methyl-1H-imidazole-4-carboxamide]: the EC50 with HCT-116 was 70 µM; in the experiment on SKBr3, 41 µM. Besides, the IC50 at Hsp90α [3] is 5 µM.

These data come from US20100240656A1, “COMPOUNDS AS HSP90 INHIBITORS” (ORYZON GENOMICS, S.A., priority 2007, published 2010).
